For test [1], the system named is diaphragm tissue from fat-fed rats. Kind of test: Pyruvate oxidation by diaphragm tissue from fat-fed rats (14C-pyruvate into CO2) in vitro. The format is cell-based. The settings on record: Rattus norvegicus, stimulation of pyruvate oxidation, concentration 0.5 mmolar. On the procedure: Diaphragm tissue is obtained from rats fed on a high fat diet similar to 'Diet B' described by Zaragoza and Felber [Horm, Metab. Res., 2, 323 (1970)]. Pyruvate oxidation by such tissue is assessed by measurement of the rate of incorporation of carbon-14 from carbon-14-labelled pyruvate into carbon dioxide in vitro, as described by Bringolf [Eur. J. Biochem., 26, 360 (1972)]. The rate of pyruvate oxidation is depressed by 50-75% compared with that by diaphragm tissue from rats fed on a normal diet. When the compounds of the invention are added to the medium, they are found to stimulate pyruvate oxidation by diaphragm tissue from fat-fed rats in a dose dependent manner.

In test [2] the test system is pyruvate dehydrogenase enzyme (PDH). As to the kind of experiment: Proportion of active pyruvate dehydrogenase (PDHa/PDHt) in hearts of fat-fed rats after dosing. Type of test: in vivo, rat. The following applies: heart, after 1.5 hours. On the procedure:
Rats fed on a high fat diet as in the previous test, are treated either with placebo or with the compound of formula (I) or (II) by subcutaneous or intravenous injection or by oral administration. After 1.5 hours the rat hearts are removed and homogenized under conditions which minimize changes in the proportion of the pyruvate dehydrogenase enzyme (PDH) which is present in the active form, as described by Whitehouse and Randle [Biochem. J., 134, 651 (1973)]. The total amount of enzyme present (PDHt) and the amount which is present in the active form (PDHa) are assessed by a method similar to that described by Taylor et al. [J. Biol. Chem., 248, 73 (1973)]. The fat-feeding process is found to depress the ratio PDHa/PDHt from a normal value of about 0.7 to a value in the range from 0.05 to 0.2. Treatment of fat-fed rats with the compounds of formula (I) or (II) either parenterally or orally, increases this ratio in a dose dependent manner.
The increase in the PDHa/PDHt ratio affected by various of the compounds for the Examples at the dose level indicated is shown in the following Table: The compounds were administered by subcutaneous injection except where indicated by (0) where the compounds were administered orally.

The test system of a further test is heart. As to the kind of experiment: Myocardial blood flow and metabolism in fasted, closed-chest, anaesthetized, electrically paced beagle dogs. The format is in vivo. The settings on record: 0.02 to 0.1 millimole/kg. intravenously. As to the method: The ability of compounds of formula (I) or (II) to reduce oxygen demand and affect the relative utilization of carbohydrate and lipid metabolites in the heart has been assessed by measuring the effect of the compounds on myocardial blood flow and metabolism in fasted, closed-chest, anaesthetized beagle dogs, with cardiac catherization to enable simultaneous sampling of coronary sinus and arterial blood to be carried out. Coronary sinus blood flow is measured by the hydrogen gas clearance technique described by Aukland et al. [Circulation Res., 14, 164 (1964)]. The heart is paced electrically at 155 beats/minute and recordings of hemodynamic parameters (blood pressure, left ventricular pressure and the first derivative of the latter) are made continuously. Control measurement of coronary blood flow are made and samples of blood taken at 40 minute intervals, both in an untreated animal and in the same animal dose with an infusion of isoprenaline (60 ng./kg./min.), which both stimulates cardiac contraction and increases plasma free fatty acid levels. The compound of formula (I) or (II) is then administered intravenously and measurements are made and samples taken again, 40 minutes and 90 minutes later. The blood samples from the artery and coronary sinus are analyzed for oxyhemoglobin, pyruvate and free fatty acid (FFA) content, differences between those of the arterial and coronary sinus blood, when multiplied by coronary blood flow, being a measure of oxygen consumption, pyruvate uptake and FFA uptake by the myocardium respectively.

Setting [3] is: 0.6 mMol/kg., administered orally (0).
[4] abbreviates: 0.6 mMol/kg., subcutaneous injection.
[5] abbreviates: 0.3 mMol/kg., administered orally (0).
The mark [6] stands for this setting: 1.2 mMol/kg., subcutaneous injection.
The mark [7] stands for this setting: 0.3 mMol/kg., subcutaneous injection.

Structures can show the parent of a compound that is named as a salt.

In test [1], `NC(C(=O)O)c1ccc(CC2CC2)[nH]1` (racemic) [Example 59, DL-2-(5-Cyclopropylmethyl-2-pyrrolyl)glycine] returned an activation at 500 µM of 29%. In test [2] (setting [3]), the PDHa/PDHt ratio was 0.21.

In the case of `CCc1ccc(C(N)C(=O)O)[nH]1` (racemic) [Example 60, DL-2-(5-Ethyl-2-pyrrolyl)glycine], the activation at 500 µM in test [1] turned out to be 59%. Moreover, the PDHa/PDHt ratio in test [2] (setting [4]) came out at 0.16. The molecule `CCCCCc1ccc(C(N)C(=O)O)[nH]1` (racemic) [Example 61, DL-2-(5-n-Pentyl-2-pyrrolyl)glycine] registered an activation at 500 µM in test [1] of 84%. Besides, the PDHa/PDHt ratio in test [2] (setting [3]) stood at 0.13. As to `NC(=O)C(N)c1ccc(CC2CC2)[nH]1` (racemic) [Example 64, DL-2-(5-Cyclopropylmethyl-2-pyrrolyl)glycinamide], in test [1], the activation at 500 µM amounted to 87%. Further, the PDHa/PDHt ratio in test [2] (setting [4]) worked out at 0.27. Also, in the test with heart, the “effect on myocardial blood flow or any of the hemodynamic parameters measured” value is “no significant affect” and the myocardial glucose uptake result is “increased”. Moreover, in the test with heart (in the presence of isoprenaline), the “decrease of myocardial oxygen consumption” value is reported as “about 20%”. Also, the “increase of myocardial pyruvate uptake” value in the test on heart (presence and absence of isoprenaline, for at least 40 minutes after dosing) is “at least 2 fold”. In test [1], `CCOC(=O)C(=O)c1ccc(C)[nH]1` [Example 1, 5-Methyl-2-pyrrolylglyoxylic Acid Ethyl Ester] returned an activation at 500 µM of 32%. Molecule `CCOC(=O)C(=O)c1ccc(C(C)(C)C)[nH]1` [Example 2] registered an activation at 500 µM in test [1] of 50%. As for `CCCCc1ccc(C(=O)C(=O)OCC)[nH]1` [Example 6], the PDHa/PDHt ratio in test [2] (setting [5]) is recorded as 0.23.

In turn, `CCOC(=O)C(=O)c1ccc(CC(C)C)[nH]1` [Example 9] showed an activation at 500 µM in test [1] of 65%. Same read-out and setting: the figure for `CCOC(=O)C(=O)c1ccc(Cc2ccccc2)[nH]1` [Example 18] is 19%.

Turning to `CCc1ccc(C(=O)C(=O)O)[nH]1` [Example 20, 5-Ethyl-2-Pyrrolylglyoxylic Acid], the activation at 500 µM in test [1] was 66%. In test [2] (setting [6]), the PDHa/PDHt ratio was found to be 0.85. The molecule `O=C(O)C(=O)c1ccc(CC2CC2)[nH]1` [Example 21, 5-Cyclopropylmethyl-2-pyrrolylglyoxylic Acid Sodium Salt] returned an activation at 500 µM in test [1] of 147%. For the same molecule, the PDHa/PDHt ratio in test [2] (setting [7]) is 0.44; in test [2] (setting [4]), 0.71. On to `Cc1ccc(C(=O)C(=O)O)[nH]1` [Example 22], for which the activation at 500 µM in test [1] was determined as 51%. Moreover, in test [2] (setting [6]), the PDHa/PDHt ratio is 0.84. In test [1], `CCCc1ccc(C(=O)C(=O)O)[nH]1` [Example 23] came in with an activation at 500 µM of 78%. Moreover, the PDHa/PDHt ratio in test [2] (setting [4]) was determined as 0.66; in test [2] (setting [6]), 0.82. Regarding `CCCCc1ccc(C(=O)C(=O)O)[nH]1` [Example 24, 2-(5-n-butyl-2-pyrrolyl)glyoxylic acid], in test [1], the activation at 500 µM was 140%. In addition, the PDHa/PDHt ratio in test [2] (setting [7]) was found to be 0.42.

In the case of `CC(C)Cc1ccc(C(=O)C(=O)O)[nH]1` [Example 25], the activation at 500 µM in test [1] came to 59%. The PDHa/PDHt ratio is 0.45 in test [2] (setting [4]) and 1.00 in test [2] (setting [6]). The molecule `CC(C)(C)c1ccc(C(=O)C(=O)O)[nH]1` [Example 26] showed an activation at 500 µM in test [1] of 31%. `CCCCCc1ccc(C(=O)C(=O)O)[nH]1` [Example 27, 2-(5-n-amyl-2-pyrrolyl)glyoxylic acid] came in with an activation at 500 µM in test [1] of 157%. For the same molecule, the PDHa/PDHt ratio in test [2] (setting [4]) was determined as 0.13.

In test [1], `CC(C)(C)Cc1ccc(C(=O)C(=O)O)[nH]1` [Example 28] returned an activation at 500 µM of 88%. In turn, `CCCCCCc1ccc(C(=O)C(=O)O)[nH]1` [Example 29, 2-(5-n-hexyl-2-pyrrolyl)glyoxylic acid] showed an activation at 500 µM in test [1] of 78%. For the same molecule, the PDHa/PDHt ratio in test [2] (setting [5]) came out at 0.40.

On to `CC(C)(C)CCc1ccc(C(=O)C(=O)O)[nH]1` [Example 30], for which the activation at 500 µM in test [1] is 44%. Regarding `O=C(O)C(=O)c1ccc(CCC2CCCCC2)[nH]1` [Example 31], in test [1], the activation at 500 µM is 125%. In test [2] (setting [5]), the PDHa/PDHt ratio turned out to be 0.20.

`O=C(O)C(=O)c1ccc(Cc2ccccc2)[nH]1` [Example 32] displayed an activation at 500 µM in test [1] of 43%. Besides, the PDHa/PDHt ratio is listed as 0.16 in test [2] (setting [4]) and 0.83 in test [2] (setting [6]).

In the case of `O=C(O)C(=O)c1ccc(CCc2ccccc2)[nH]1` [Example 33], the activation at 500 µM in test [1] was determined as 69%. For the same molecule, the PDHa/PDHt ratio in test [2] (setting [7]) is on record as 0.13. Regarding `CSc1ccc(C(=O)C(=O)O)[nH]1` [Example 34], the activation at 500 µM in test [1] was 53%. The PDHa/PDHt ratio in test [2] (setting [6]) was determined as 0.42.

Molecule `O=C(O)C(=O)c1ccc(CCC2C=CCC2)[nH]1` (centres unmarked) [Example 35] showed an activation at 500 µM in test [1] of 209%. Moreover, in test [2] (setting [7]), the PDHa/PDHt ratio was determined as 0.18.

`O=C(O)C(=O)c1ccc(CC2CCCC2)[nH]1` [Example 36] registered an activation at 500 µM in test [1] of 154%. Also, the PDHa/PDHt ratio in test [2] (setting [7]) is reported as 0.20.

Regarding `O=C(O)C(=O)c1ccc(CC2CCCCC2)[nH]1` [Example 37], the activation at 500 µM in test [1] stood at 124%. In test [2] (setting [7]), the PDHa/PDHt ratio worked out at 0.12. Regarding `O=C(O)C(=O)c1ccc(CCC2CCCC2)[nH]1` [Example 38], in test [1], the activation at 500 µM was found to be 80%. Further, the PDHa/PDHt ratio in test [2] (setting [7]) is given as 0.25.

`CCCSc1ccc(C(=O)C(=O)OCC)[nH]1` [Example 39, 5-n-Propylthio-2-pyrrolylglyoxylic Acid Ethyl Ester] yielded an activation at 500 µM in test [1] of 44%.

With `CCCSc1ccc(C(=O)C(=O)O)[nH]1` [Example 40, 5-n-Propylthio-2-pyrrolylglyoxylic Acid], the activation at 500 µM in test [1] is 80%. For the same molecule, the PDHa/PDHt ratio in test [2] (setting [7]) is on record as 0.27.

Source of the values: patent US4243672A, “5-Substituted 2-pyrroleglyoxylic acids, 5-substituted 2-pyrrolylglycines and derivatives thereof” (Pfizer Inc., priority 1978, dated 1981).
